The record followed here is PubChem BioAssay (NCI).

Test in all cases: NCI-60 cell line screen, 48 h
Test [1] deals with HCT-15 colon.
Test [2] concerns SK-MEL-28 melanoma.
In test [3] the test system is NCI-H522 lung.
In test [4] the test system is RPMI-8226 leukemia.
In test [5] the test system is DU-145 prostate.
In test [6] the test system is SN12C renal.
Test [7] has as its system CCRF-CEM leukemia.
For test [8], the system named is CAKI-1 renal.
Test [9] deals with SW-620 colon.
For test [10], the system named is MDA-MB-435.

SMILES strings stand for the structures.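 Results reflect a 48-hour exposure of cells in 96-well plates to compound at five concentrations. Abbreviation: GI50, concentration required for 50% inhibition of growth. Definition used: TGI = concentration required for complete inhibition of growth.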

With `CCCCOC(=O)c1ccc(N)cc1`, the GI50 in [1] was 8 µM; in [2], more than 100 µM; in test [3], 54.1 µM; in [4], 67.2 µM; in test [5], more than 100 µM; in [6] it was more than 100 µM. For the same compound, the GI50 is 48.2 µM in [7], 11.4 µM in test [8], 64 µM in test [9] and 34.9 µM in [10]. Further, the TGI in [1], in [2], in [3], in [4], in test [5] and in [6] was more than 100 µM in each case. Further, the TGI in test [7], in test [8], in test [9] and in test [10] was more than 100 µM each time.

In the case of `Nc1c(C(=O)Nc2ccccc2)sc2nc3c(cc12)CCCCC3`, the GI50 was 0.421 µM in test [1]; 0.812 µM in test [2]; 4.9 µM in test [3]; 0.372 µM in [4]; 0.619 µM in test [5]; 1.88 µM in test [6]. Further, the GI50 in test [7] is 0.41 µM; in test [8], 0.478 µM; in test [9], 0.443 µM; in test [10] it was 0.205 µM. In addition, the TGI is more than 100 µM in [1]; more than 100 µM in test [2]; more than 100 µM in test [3]; 14.3 µM in test [4]; 31.4 µM in test [5]; more than 100 µM in [6]. Moreover, the TGI in test [7] was more than 100 µM; in test [8], more than 100 µM; in [9], more than 100 µM; in test [10], 0.522 µM.

Regarding `COc1cc2c(c(OC)c1OC)-c1ccc(O)cc1[C@@H](NC(C)=O)CC2`, the GI50 was 0.123 µM in [1]; 0.0528 µM in test [2]; 0.0242 µM in [3]; 0.0312 µM in [4]; 0.0365 µM in test [5]; 0.0897 µM in test [6]. Moreover, the GI50 in [7] was 0.0318 µM; in test [8], 0.183 µM; in test [9] it was 0.0409 µM; in test [10], 0.0206 µM. For the same compound, the TGI was more than 100 µM in test [1]; more than 100 µM in test [2]; 0.097 µM in test [3]; 0.168 µM in test [5]; more than 100 µM in [6]; 1.62 µM in [7]. Further, the TGI in [8] was more than 39.8 µM; in test [9], more than 100 µM; in [10], 0.0463 µM.

With `CC1=C2CC(C)(C)/C=C\C(=O)/C(C)=C\C3=C[C@H](C)C[C@]3(O2)C1=O`, the TGI in test [1] came to 2.53 µM; in test [2], 1.74 µM; in test [3], 0.651 µM; in test [4], 1.51 µM; in test [5], 12.1 µM; in test [6] it was 10.2 µM. The TGI was 0.661 µM in test [7], 2.42 µM in test [8], 1.49 µM in [9] and 1.66 µM in test [10].

For `O=C1C(=C(C(F)(F)Cl)C(F)(F)Cl)C2CCC1C2` (stereo not given), the TGI was 3.97 µM in test [1]; 3.96 µM in [2]; 0.56 µM in test [3]; more than 3.16 µM in test [4]; more than 10 µM in test [5]; 3.61 µM in test [6]. The TGI in [7] was more than 10 µM; in test [9] it was 3.98 µM; in [10], 3.81 µM.

As to `COC(=O)c1ccc2c(c1)C(=O)c1c-2n(CCCCl)c(=O)c2cc([N+](=O)[O-])ccc12`, the GI50 was more than 100 µM in test [1]; more than 100 µM in test [2]; 51 µM in [3]; 84.5 µM in test [4]; 37.2 µM in [5]; more than 100 µM in [6]. The GI50 in test [7] was 52.8 µM; in test [8] it was 65.6 µM; in [9], 44.6 µM; in test [10], more than 100 µM. Moreover, the TGI in [1], in [2], in test [3], in test [4], in test [5] and in [6] was more than 100 µM in each case. The TGI in test [7], in [8], in test [9] and in test [10] was more than 100 µM throughout.

For `CO[C@H]1C=CO[C@@]2(C)Oc3c(C)c(O)c4c(O)c(c(CN5CCN(C)CC5)c(O)c4c3C2=O)NC(=O)/C(C)=C\C=C[C@H](C)[C@H](O)C(C)[C@@H](O)C(C)[C@H](OC(C)=O)[C@@H]1C` (stereo not given in full), the TGI in test [1] was more than 100 µM; in test [2] it was more than 100 µM; in [3], 46.5 µM; in test [4], more than 87.4 µM; in test [5], more than 100 µM; in test [6], more than 93.9 µM. The TGI in test [7] is 22.3 µM; in test [8], more than 100 µM; in [9], more than 100 µM; in test [10], more than 60.8 µM.

On to `NCCc1ccc(S(=O)(=O)F)cc1`, for which the GI50 was 64.4 µM in test [1]; more than 100 µM in [2]; 73.4 µM in test [3]; 37 µM in test [5]; 30.3 µM in test [8]; 52.8 µM in test [9]. Also, in test [10], the GI50 is 65.1 µM. The TGI in [1], in [2], in [3], in [5], in test [8] and in test [9] was more than 100 µM in each case. The TGI in [10] is more than 100 µM.

In the case of `CC(=O)OC1CCC2(C)C(CCC3C2CC(=O)C2(C)C3CC(N3CC3)C2C(C)=O)C1` (stereo not given), the TGI in test [1] is 70.6 µM; in test [2], more than 100 µM; in test [3], 29.8 µM; in test [4] it was 83.6 µM; in [5], more than 100 µM; in test [6], 61 µM. Moreover, the TGI was 34.6 µM in [8], more than 100 µM in [9] and 51.5 µM in test [10].

In the case of `CC(C)N1CCN(c2ccncc2S(=O)(=O)N2CCCCC2)CC1`, the TGI in test [1], in test [2], in test [3], in test [4], in test [5] and in test [6] was more than 100 µM each time. Further, the TGI in test [8], in [9] and in test [10] was more than 100 µM throughout.
